# Reference: patent publication US9682940B2, “Indazole derivatives useful as CB-1 inverse agonists” (Janssen Pharmaceutica NV, priority 2015, dated 2017)
# How the values were obtained:
# [1] = target: Human CB1R (Cannabanoid receptor 1) (Homo sapiens (Human), UniProt P21554); assay: CB-1 in vitro cAMP (HTRF) assay in HEK-293 cells; type: cell-based; conditions: HEK-293 cells stably transfected with human CB1R, 250 nM Forskolin, mean where tested more than once, read-out: CB-1 (HEK_cAMP) EC50
# Method in brief: (§1)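 HEK-293 cells stably expressing human CB1 or CB2 plated overnight, then tested in HBSS/5 mM HEPES/0.1% BSA with 0.5 mM IBMX and forskolin (1.5 μM working dilution). Intracellular cAMP quantified by competitive HTRF immunoassay (d2-cAMP, cryptate anti-cAMP) against a cAMP standard curve; compounds as 1/3 serial dilutions from 10 mM DMSO stocks.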
# [2] = target: Human CB2R (Cannabanoid receptor 2) (Homo sapiens (Human), UniProt P34972); assay: CB-2 in vitro cAMP (HTRF) assay in HEK-293 cells; type: cell-based; conditions: HEK-293 cells stably transfected with human CB2R, 250 nM Forskolin, mean where tested more than once, read-out: CB-2 (HEK_cAMP) EC50
# Chain of Human CB2R (Cannabanoid receptor 2) (P34972 whole entry): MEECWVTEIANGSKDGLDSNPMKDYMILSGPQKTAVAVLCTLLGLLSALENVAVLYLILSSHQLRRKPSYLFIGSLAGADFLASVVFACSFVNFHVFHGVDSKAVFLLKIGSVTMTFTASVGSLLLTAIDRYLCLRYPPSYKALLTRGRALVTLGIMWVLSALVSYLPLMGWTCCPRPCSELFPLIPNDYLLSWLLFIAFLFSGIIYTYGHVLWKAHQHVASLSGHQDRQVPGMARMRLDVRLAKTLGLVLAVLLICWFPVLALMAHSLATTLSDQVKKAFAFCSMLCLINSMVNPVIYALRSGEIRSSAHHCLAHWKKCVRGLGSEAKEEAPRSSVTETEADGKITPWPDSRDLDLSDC
# Method in brief: as §1
# Chain of Human CB1R (Cannabanoid receptor 1) (P21554 whole entry): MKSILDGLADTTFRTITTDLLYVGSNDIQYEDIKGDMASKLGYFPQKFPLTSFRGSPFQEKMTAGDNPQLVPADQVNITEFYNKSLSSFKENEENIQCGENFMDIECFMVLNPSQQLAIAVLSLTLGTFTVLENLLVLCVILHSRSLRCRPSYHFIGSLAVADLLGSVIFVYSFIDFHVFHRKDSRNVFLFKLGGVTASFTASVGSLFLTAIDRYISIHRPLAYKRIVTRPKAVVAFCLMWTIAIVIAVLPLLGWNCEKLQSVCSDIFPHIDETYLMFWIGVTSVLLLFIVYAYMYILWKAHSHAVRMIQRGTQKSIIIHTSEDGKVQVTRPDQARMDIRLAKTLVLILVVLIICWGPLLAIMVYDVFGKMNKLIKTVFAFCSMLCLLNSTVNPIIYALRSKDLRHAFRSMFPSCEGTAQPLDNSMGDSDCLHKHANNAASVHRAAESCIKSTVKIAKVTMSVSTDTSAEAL
EC50 [1] [µM],EC50 [2] [µM],SMILES
0.002,2.39,"O=C(O)c1ccc(S(=O)(=O)N2CCC(c3c4cc(C(c5ccc(Cl)cc5)c5ccc(Cl)cc5)ccc4nn3C3CC3)CC2)cc1F [Compound 166, 4-(4-(5-(bis(4-chlorophenyl)methyl)-2-cyclopropyl-2H-indazol-3-yl)piperidin-1-ylsulfonyl)-2-fluorobenzoic acid]"
0.012,> 10,"NC(=O)c1ccc(S(=O)(=O)N2CCC(c3c4cc(C(c5ccc(Cl)cc5)c5ccc(Cl)cc5)ccc4nn3C3CC3)CC2)cc1F [Compound 167, 4-(4-(5-(bis(4-chlorophenyl)methyl)-2-cyclopropyl-2H-indazol-3-yl)piperidin-1-ylsulfonyl)-2-fluorobenzamide]"
0.002,7.04,"O=C(O)c1cc(S(=O)(=O)N2CCC(c3c4cc(C(c5ccc(Cl)cc5)c5ccc(Cl)cc5)ccc4nn3C3CC3)CC2)ccc1Cl [Compound 168, 5-(4-(5-(bis(4-chlorophenyl)methyl)-2-cyclopropyl-2H-indazol-3-yl)piperidin-1-ylsulfonyl)-2-chlorobenzoic acid]"
0.009,> 10,"CNC(=O)c1cc(S(=O)(=O)N2CCC(c3c4cc(C(c5ccc(Cl)cc5)c5ccc(Cl)cc5)ccc4nn3C3CC3)CC2)ccc1Cl [Compound 170, 5-(4-(5-(bis(4-chlorophenyl)methyl)-2-cyclopropyl-2H-indazol-3-yl)piperidin-1-ylsulfonyl)-2-chloro-N-methylbenzamide]"
0.003,> 10,"O=C(O)c1ccc(S(=O)(=O)N2CCC(c3c4cc(C(c5ccc(Cl)cc5)c5ccc(Cl)cc5)ccc4nn3C3CC3)CC2)o1 [Compound 171, 5-(4-(5-(bis(4-chlorophenyl)methyl)-2-cyclopropyl-2H-indazol-3-yl)piperidin-1-ylsulfonyl)furan-2-carboxylic acid]"
0.003,> 10,"NC(=O)c1ccc(S(=O)(=O)N2CCC(c3c4cc(C(c5ccc(Cl)cc5)c5ccc(Cl)cc5)ccc4nn3C3CC3)CC2)o1 [Compound 172, 5-(4-(5-(bis(4-chlorophenyl)methyl)-2-cyclopropyl-2H-indazol-3-yl)piperidin-1-ylsulfonyl)furan-2-carboxamide]"
1.13,> 10,NC(=O)COc1ccc(N2CCC(c3nn(C4CC4)c4ccc(C(c5ccc(Cl)cc5)c5ccc(Cl)cc5)cc34)CC2)cc1 [Compound 175]
0.005,> 10,"CNC(=O)c1ccc(S(=O)(=O)N2CCC(c3c4cc(C(c5ccc(Cl)cc5)c5ccc(Cl)cc5)ccc4nn3C3CC3)CC2)cc1F [Compound 176, 4-(4-(5-(bis(4-chlorophenyl)methyl)-2-cyclopropyl-2H-indazol-3-yl)piperidin-1-ylsulfonyl)-2-fluoro-N-methylbenzamide]"
0.324,> 10,O=C(O)c1cccc(N2CCC(c3nn(C4CC4)c4ccc(C(c5ccc(Cl)cc5)c5ccc(Cl)cc5)cc34)CC2)c1 [Compound 178]
0.093,> 10,NC(=O)c1cccc(N2CCC(c3nn(C4CC4)c4ccc(C(c5ccc(Cl)cc5)c5ccc(Cl)cc5)cc34)CC2)c1 [Compound 179]
6.55,> 10,O=C(O)Cc1cccc(N2CCC(c3nn(C4CC4)c4ccc(C(c5ccc(Cl)cc5)c5ccc(Cl)cc5)cc34)CC2)c1 [Compound 180]
7.8,> 10,O=C(O)Cc1ccc(N2CCC(c3nn(C4CC4)c4ccc(C(c5ccc(Cl)cc5)c5ccc(Cl)cc5)cc34)CC2)cc1 [Compound 181]
0.271,> 10,NC(=O)Cc1ccc(N2CCC(c3nn(C4CC4)c4ccc(C(c5ccc(Cl)cc5)c5ccc(Cl)cc5)cc34)CC2)cc1 [Compound 182]
0.077,> 10,O=C(O)c1cccc(N2CCC(c3c4cc(C(c5ccc(Cl)cc5)c5ccc(Cl)cc5)ccc4nn3C3CC3)CC2)c1 [Compound 183]
0.026,> 10,"NC(=O)c1cccc(N2CCC(c3c4cc(C(c5ccc(Cl)cc5)c5ccc(Cl)cc5)ccc4nn3C3CC3)CC2)c1 [Compound 184, 3-(4-(5-(bis(4-chlorophenyl)methyl)-2-cyclopropyl-2H-indazol-3-yl)piperidin-1-yl)benzamide]"
0.833,> 10,O=C(O)Cc1cccc(N2CCC(c3c4cc(C(c5ccc(Cl)cc5)c5ccc(Cl)cc5)ccc4nn3C3CC3)CC2)c1 [Compound 185]
0.059,> 10,NC(=O)Cc1ccc(N2CCC(c3c4cc(C(c5ccc(Cl)cc5)c5ccc(Cl)cc5)ccc4nn3C3CC3)CC2)cc1 [Compound 186]
3.04,> 10,O=C(O)c1ccc(C(O)(c2ccc(Cl)cc2)c2ccc3[nH]nc(C4CCN(S(=O)(=O)C(F)(F)F)CC4)c3c2)cc1 (stereo not drawn) [Compound 187]
0.023,> 10,NC(=O)c1ccc(N2CCC(c3nn(C4CC4)c4ccc(C(c5ccc(Cl)cc5)c5ccc(Cl)cc5)cc34)CC2)cc1 [Compound 189]
1.08,> 10,NC(=O)Cc1cccc(N2CCC(c3nn(C4CC4)c4ccc(C(c5ccc(Cl)cc5)c5ccc(Cl)cc5)cc34)CC2)c1 [Compound 190]

EC50 [1] [µM],EC50 [2] [µM],SMILES
5.29,> 10,O=C(O)COc1cccc(N2CCC(c3nn(C4CC4)c4ccc(C(c5ccc(Cl)cc5)c5ccc(Cl)cc5)cc34)CC2)c1 [Compound 191]
7.08,> 10,O=C(O)COc1ccc(N2CCC(c3nn(C4CC4)c4ccc(C(c5ccc(Cl)cc5)c5ccc(Cl)cc5)cc34)CC2)cc1 [Compound 192]
0.474,9.3,O=C(O)c1ccc(N2CCC(c3c4cc(C(c5ccc(Cl)cc5)c5ccc(Cl)cc5)ccc4nn3C3CC3)CC2)cc1 [Compound 193]
0.048,> 10,"NC(=O)c1ccc(N2CCC(c3c4cc(C(c5ccc(Cl)cc5)c5ccc(Cl)cc5)ccc4nn3C3CC3)CC2)cc1 [Compound 194, 4-(4-(5-(bis(4-chlorophenyl)methyl)-2-cyclopropyl-2H-indazol-3-yl)piperidin-1-yl)benzamide]"
0.032,6.99,"NC(=O)COc1cccc(N2CCC(c3c4cc(C(c5ccc(Cl)cc5)c5ccc(Cl)cc5)ccc4nn3C3CC3)CC2)c1 [Compound 195, 2-(3-(4-(5-(bis(4-chlorophenyl)methyl)-2-cyclopropyl-2H-indazol-3-yl)piperidin-1-yl)phenoxy)acetamide]"
4.18,> 10,O=C(O)COc1ccc(N2CCC(c3c4cc(C(c5ccc(Cl)cc5)c5ccc(Cl)cc5)ccc4nn3C3CC3)CC2)cc1 [Compound 196]
0.032,7.1,"NC(=O)COc1ccc(N2CCC(c3c4cc(C(c5ccc(Cl)cc5)c5ccc(Cl)cc5)ccc4nn3C3CC3)CC2)cc1 [Compound 197, 2-(4-(4-(5-(bis(4-chlorophenyl)methyl)-2-cyclopropyl-2H-indazol-3-yl)piperidin-1-yl)phenoxy)acetamide]"
0.15,> 10,O=C(O)c1ccc(N2CCC(c3nn(C4CC4)c4ccc(C(c5ccc(Cl)cc5)c5ccc(Cl)cc5)cc34)CC2)cc1 [Compound 198]
0.158,> 10,NC(=O)COc1cccc(N2CCC(c3nn(C4CC4)c4ccc(C(c5ccc(Cl)cc5)c5ccc(Cl)cc5)cc34)CC2)c1 [Compound 199]
0.624,> 10,O=C(O)c1ccc(S(=O)(=O)N2CCC(c3c4cc(C(c5ccc(Cl)cc5)c5ccc(Cl)cc5)ccc4nn3C3CC3)CC2)cc1F [Compound 200]
2.64,> 10,CC(C)(O)Cn1nc(C2CCN(S(=O)(=O)C(F)(F)F)CC2)c2cc(C(c3ccc(Cl)cc3)c3ccc(Cl)cc3)ccc21 [Compound 201]
0.169,> 10,CC(O)Cn1nc(C2CCN(S(=O)(=O)C(F)(F)F)CC2)c2cc(C(c3ccc(Cl)cc3)c3ccc(Cl)cc3)ccc21 (stereo not drawn) [Compound 202]
0.053,> 10,O=C(O)Cc1ccc(N2CCC(c3c4cc(C(c5ccc(Cl)cc5)c5ccc(Cl)cc5)ccc4nn3C3CC3)CC2)cc1 [Compound 203]
0.019,> 10,O=C(O)c1ccc(-n2nc(C3CCN(S(=O)(=O)C(F)(F)F)CC3)c3cc(C(c4ccc(Cl)cc4)c4ccc(Cl)cc4)ccc32)cc1 [Compound 204]
0.006,2.12,NC(=O)c1ccc(-n2nc(C3CCN(S(=O)(=O)C(F)(F)F)CC3)c3cc(C(c4ccc(Cl)cc4)c4ccc(Cl)cc4)ccc32)cc1 [Compound 205]
0.068,> 10,NC(=O)c1ccc(N2CCC(c3n[nH]c4ccc(C(c5ccc(Cl)cc5)c5ccc(Cl)cc5)cc34)CC2)cc1 [Compound 208]
4.69,> 10,O=C(O)COc1ccc(N2CCC(c3n[nH]c4ccc(C(c5ccc(Cl)cc5)c5ccc(Cl)cc5)cc34)CC2)cc1 [Compound 211]
1.83,> 10,O=C(O)c1cccc(N2CCC(c3n[nH]c4ccc(C(c5ccc(Cl)cc5)c5ccc(Cl)cc5)cc34)CC2)c1 [Compound 212]
0.367,> 10,O=C(O)c1ccc(N2CCC(c3n[nH]c4ccc(C(c5ccc(Cl)cc5)c5ccc(Cl)cc5)cc34)CC2)cc1 [Compound 213]

SMILES,EC50 [1] [µM],EC50 [2] [µM]
O=S(=O)(N1CCC(c2n[nH]c3ccc(C(c4ccc(Cl)cc4)c4ccc(Cl)cc4)cc23)CC1)C(F)(F)F [Compound 173],0.007,5.78
O=C(O)c1ccc(CN2CCC(c3nn(C4CC4)c4ccc(C(c5ccc(Cl)cc5)c5ccc(Cl)cc5)cc34)CC2)cc1 [Compound 209],0.068,> 10
NC(=O)c1ccc(CN2CCC(c3nn(C4CC4)c4ccc(C(c5ccc(Cl)cc5)c5ccc(Cl)cc5)cc34)CC2)cc1 [Compound 210],0.134,> 10
